Experimental data taken from patent US20250228242A1 (priority 2021, published 2025).
Counter-ions that a name gives are not always drawn.

How the values were obtained:
Phytophthora infestans = experiment: whole plant or invertebrate; assay type: in vivo; details: in Solanum tuberosum, 120 h, read-out: P. infestans % inhibition
Rhodococcus sp. = experiment: Bacterial liquid culture growth curves (OD600), Rhodococcus sp.; details: 18.5 h, read-out: Absolute growth rate relative to mock control, Rhodococcus sp.
[1] = tested on: Pseudomonas syringae pv. tomato (Pto) DC3000; experiment: Bacterial liquid culture growth curves (OD600), Pto DC3000; details: 18.5 h, read-out: Absolute growth rate relative to mock control, Pto DC3000
P. infestans = experiment: whole plant or invertebrate; assay type: in vivo; details: Phytophthora infestans, in Solanum tuberosum, read-out: P. infestans % inhibition

Row | Compound | inhibition at 100 µM (Phytophthora infestans) [%] | activity at 100 µM (Rhodococcus sp.) [%] | activity at 100 µM [1] [%] | inhibition at 100 µM (P. infestans) [%]
1 | Ic1ccc(-c2cc(-c3ccc4c(c3)OCO4)n[nH]2)cc1 [Compound 15, 3-(1,3-Benzodioxol-5-yl)-5-(4-iodophenyl)-1H-pyrazole] | 56 | – | – | –
2 | CN(C)c1cccc(-c2cc(-c3ccc4c(c3)OCO4)n[nH]2)c1 [Compound 14, 3-[3-(1,3-benzodioxol-5-yl)-1H-pyrazol-5-yl]-N,N-dimethylaniline] | 71 | 11 | 100 | –
3 | Oc1ccc(-c2cc(-c3cccc(F)c3)on2)cc1O [Compound 21, 3-(3,4-Dihydroxyphenyl)-5-(3-fluorophenyl)isoxazole] | 70 | 2 | 93 | –
4 | Oc1ccc(-c2noc(-c3cccc(F)c3)n2)cc1O [Compound 25, 3-(3,4-Dihydroxyphenyl)-5-(3-fluorophenyl)-1,2,4-oxadiazole] | 79 | 1 | 105 | –
5 | COc1ccc(-c2cc(-c3ccc(Cl)cc3)n[nH]2)cc1 [Compound 31, 3-(4-Chlorophenyl)-5-(4-methoxyphenyl)-1H-pyrazole] | 77 | – | – | –
6 | Fc1cc(F)cc(-c2cc(-c3ccc4c(c3)OCO4)n[nH]2)c1 [Compound 104, 3-(1,3-Benzodioxol-5-yl)-5-(3,5-difluorophenyl)-1H-pyrazole] | – | 51 | 101 | –
7 | COc1ccc(-c2c[nH]c(-c3ccc(OC)c(OC)c3)n2)cc1OC [Compound 30, 2,4-Bis(3,4-dimethoxyphenyl)-1H-imidazole] | 46 | 35 | 109 | –
8 | Oc1ccc(-c2cc(-c3ccc(O)c(O)c3)[nH]n2)cc1O [Compound 27, 3,5-Bis(3,4-Dihydroxyphenyl)-1H-pyrazole hydrobromide] | 62 | 98 | 77 | –
9 | c1ccc(-c2cc(-c3ccc4c(c3)OCO4)no2)cc1 [Compound 17, 3-(1,3-Benzodioxol-5-yl)-5-phenylisoxazole] | 13 | – | – | –
10 | COc1ccc(-c2cc(-c3cccc(F)c3)on2)cc1OC [Compound 20, 3-(3,4-Dimethoxyphenyl)-5-(3-fluorophenyl)isoxazole] | 21 | – | – | –
11 | COc1ccc(-c2cc(-c3cccc(O)c3)[nH]n2)cc1OC [Compound 33, 3-(3,4-Dimethoxyphenyl)-5-(3-hydroxyphenyl)-1H-pyrazole] | 85 | 6 | 90 | 84
12 | COc1ccc(-c2nc(-c3ccc(C)c(C)c3)n[nH]2)cc1OC [Compound 160, 5-(3,4-Dimethoxyphenyl)-3-(3,4-dimethylphenyl)-1H-1,2,4-triazole] | – | – | – | 76
13 | COc1ccc(NC(=O)Nc2ccc(-c3cc(-c4cccc(F)c4)on3)cc2)cc1 [Compound 57, 1-{4-[5-(3-Fluorophenyl)-1,2-oxazol-3-yl]phenyl}-3-(4-methoxyphenyl)urea] | – | – | – | 8
14 | Cc1ccc(-c2n[nH]c(-c3cccc(N4CCCC4)c3)n2)cc1C [Compound 156, 3-(3,4-Dimethylphenyl)-5-[3-(pyrrolidin-1-yl)phenyl]-1H-1,2,4-triazole] | – | – | – | 25
15 | Oc1ccc(-c2cc(-c3cccc(C(F)(F)F)c3)[nH]n2)cc1O [Compound 12, 3-(3,4-Dihydroxyphenyl)-5-[3-(trifluoromethyl)phenyl]-1H-pyrazole] | 76 | -1 | 104 | –
16 | Oc1ccc(-c2nc(-c3ccc(C(F)(F)F)cc3)no2)cc1 [Compound 72, 5-(4-Hydroxyphenyl]-3-[4-(trifluoromethyl)phenyl]-1,2,4-oxadiazole] | – | – | – | 83
17 | COc1ccc(-c2cc(-c3ccc(O)cc3)[nH]n2)cc1OC [Compound 32, 3-(3,4-Dimethoxyphenyl)-5-(4-hydroxyphenyl)-1H-pyrazole] | 77 | 10 | 90 | –
18 | COc1ccc(S(=O)(=O)Nc2ccc(-c3coc(-c4ccc(OC(C)C)cc4)n3)cc2)cc1 [Compound 124] | – | – | – | 4
19 | CCc1ccc(-c2c[nH]c(-c3cccc(C(=O)O)c3)n2)cc1 [Compound 125, 3-[4-(4-Ethylphenyl)-1H-imidazol-2-yl]benzoic acid] | – | – | – | 30
20 | c1cc2c(cc1-c1cnc(-c3ccc(N4CCOCC4)cc3)[nH]1)CCO2 [Compound 109, 4-{4-[5-(2,3-Dihydro-1-benzofuran-5-yl)-1H-imidazol-2-yl]phenyl}morpholine] | – | – | – | 11

Row | Compound | inhibition at 100 µM (Phytophthora infestans) [%] | activity at 100 µM (Rhodococcus sp.) [%] | activity at 100 µM [1] [%] | inhibition at 100 µM (P. infestans) [%]
21 | Oc1ccc(-c2coc(-c3ccc4ncccc4c3)n2)cc1 [Compound 60, 6-[4-(4-Hydroxyphenyl)-1,3-oxazol-2-yl]quinoline] | – | – | – | 9
22 | O=C(Nc1ccc(O)cc1)c1ccc(-c2nc(-c3ccc(N4CCCC4)cc3)c[nH]2)cc1 [Compound 55, N-(4-Hydroxyphenyl)-4-{4-[4-(pyrrolidin-1-yl)phenyl]-1H-imidazol-2-yl}benzamide] | – | – | – | 85
23 | COc1ccc(-c2c[nH]c(-c3ccc(Cl)cc3)n2)cc1 [Compound 113, 2-(4-Chlorophenyl)-5-(4-methoxyphenyl)-1H-imidazole] | – | – | – | 90
24 | CCOc1ccc(-c2coc(-c3cccc(C(C)C)c3)n2)cc1 [Compound 110, 4-(4-Ethoxyphenyl)-2-[3-(propan-2-yl)phenyl]-1,3-oxazole] | – | – | – | 18
25 | O=C(O)c1ccc(-c2n[nH]c(-c3ccc(Cl)cc3)n2)cc1 [Compound 56, 4-[5-(4-Chlorophenyl)-1H-1,2,4-triazol-3-yl]benzoic acid hydrochloride] | – | – | – | 17
26 | CN1CCN(C(=O)c2cccc(-c3cc(-c4ccc(C(F)(F)F)cc4)[nH]n3)c2)CC1 [Compound 147, {3-[5-(4-Trifluoromethylphenyl)-1H-pyrazol-3-yl]phenyl}(4-methylpiperazin-1-yl)methanone] | – | – | – | 81
27 | Oc1cc(-c2cc(-c3cccc(C(F)(F)F)c3)no2)ccc1Cl [Compound 49, 5-(4-Chloro-3-hydroxyphenyl)-3-[3-(trifluoromethyl)phenyl]-isoxazole] | – | – | – | 3
28 | Cc1ccc(-c2cc(-c3cccc(OC(F)(F)F)c3)no2)cc1C [Compound 53, 5-(3,4-Dimethylphenyl)-3-[3-(trifluoromethoxy)phenyl]-isoxazole] | – | – | – | 23
29 | CCN(CC)C(=O)c1cccc(-c2ncc(-c3ccc(C(F)(F)F)cc3OC)o2)c1 [Compound 123, N,N-diethyl-3-{5-[2-methoxy-4-(trifluoromethyl)phenyl]-1,3-oxazol-2-yl}benzamide] | – | – | – | 33
30 | O=C(O)c1ccc(-c2cc(-c3cccc(C(F)(F)F)c3)no2)cc1 [Compound 83, 4-{3-[3-(Trifluoromethyl)phenyl]-1,2-oxazol-5-yl}benzoic acid] | – | – | – | 26
31 | COc1cc(C(F)(F)F)ccc1-c1cnc(-c2cccc(C(=O)O)c2)o1 [Compound 122, 3-{5-[2-Methoxy-4-(trifluoromethyl)phenyl]-1,3-oxazol-2-yl}benzoic acid] | – | – | – | 36
32 | Cc1ccc([N+](=O)[O-])cc1-c1nc(-c2ccc(F)cc2)n[nH]1 [Compound 99, 3-(4-Fluorophenyl)-5-(2-methyl-5-nitrophenyl)-1H-1,2,4-triazole] | – | – | – | 64
33 | COCCNC(=O)Nc1cccc(-c2cc(-c3cccc(OC(F)(F)F)c3)[nH]n2)c1 [Compound 148, 1-{3-[5-(3-Trifluoromethoxyphenyl)-1H-pyrazol-3-yl]phenyl}-3-(2-methoxyethyl)urea] | – | – | – | 6
34 | CC(C)OC(=O)Nc1ccc(-c2nc(-c3cccc(C(F)(F)F)c3)no2)cc1 [Compound 75, Propan-2-yl (4-{3-[3-(trifluoromethyl)phenyl]-1,2,4-oxadiazol-5-yl}phenyl)carbamate] | – | – | – | 31
35 | CNc1ccc(-c2cc(-c3cccc(Br)c3)[nH]n2)cc1 [Compound 42, 5-(3-Bromophenyl)-3-[4-(methylamino)phenyl]-1H-pyrazole] | – | 72 | 73 | –
36 | COc1ccc(-c2c[nH]c(-c3ccc(Br)cc3)n2)cc1 [Compound 117, 2-(4-Bromophenyl)-5-(4-methoxyphenyl)-1H-imidazole] | – | – | – | 97
37 | O=S(=O)(Nc1cccc(-c2nc(-c3ccc(OC(F)(F)F)cc3)c[nH]2)c1)c1ccc(Cl)cc1 [Compound 136, 4-Chloro-N-(3-{4-[4-(trifluoromethoxy)phenyl]-1H-imidazol-2-yl}phenyl)benzenesulfonamide] | – | – | – | 7
38 | CS(=O)(=O)Nc1cccc(-c2ncc(-c3ccc(Cl)c(Cl)c3)o2)c1 [Compound 119, N-{3-[5-(3,4-Dichlorophenyl)-1,3-oxazol-2-yl]phenyl} methanesulfonamide] | – | – | – | 15
39 | CCc1ccc(-c2cc(-c3ccc(N4CCC4)cc3)on2)cc1 [Compound 90, 5-[4-(Azetidin-1-yl)phenyl]-3-(4-ethylphenyl)-1,2-oxazole] | – | – | – | 13
